Reference: US11225465B2, “Albicidin derivatives, their use and synthesis” (TECHNISCHE UNIVERSITÄT BERLIN, priority 2017, dated 2022)

How the values were obtained:
Test in all cases: MHK against further strains (Table 2)
Type in all cases: cell-based
[1] = tested on: Klebsiella pneumoniae 310-1-54; settings: Nr. 14 Klebsiella pneumoniae 310-1-54, clinical isolate
Protocol: (§1) The tests were performed using the micro dilution method.
(§2) The determination of MIC values was performed according to the ninth edition of the Approved Standard M07-A9 (CLSI. Methods for Dilution Antimicrobial Susceptibility Tests for Bacteria That Grow Aerobically; Approved Standard—Ninth Edition. CLSI document M07-A9. Wayne, Pa.: Clinical and Laboratory Standards Institute; 2012.)

[2] = tested on: Staphylococcus aureus PEG 13-18-19; settings: Nr. 26 Staphylococcus aureus PEG 13-18-19, clinical isolate
Protocol: as §1, §2

[3] = tested on: Escherichia coli ATCC 25922; settings: Nr. 1 Escherichia coli ATCC 25922; KBE/ml 2.80E+05
Protocol: as §1, §2

[4] = tested on: Pseudomonas aeruginosa PEG-10-47-57; settings: Nr. 20 Pseudomonas aeruginosa PEG-10-47-57, clinical isolate
Protocol: as §1, §2

[5] = tested on: Pseudomonas aeruginosa PEG-10-44-76; settings: Nr. 21 Pseudomonas aeruginosa PEG-10-44-76, clinical isolate
Protocol: as §1, §2

[6] = tested on: Acinetobacter baumannii PEG 10-57-24; settings: Nr. 24 Acinetobacter baumannii PEG 10-57-24, clinical isolate
Protocol: as §1, §2

[7] = tested on: Klebsiella oxytoca PEG-10-75-18; settings: Nr. 15 Klebsiella oxytoca PEG-10-75-18, clinical isolate
Protocol: as §1, §2

[8] = tested on: Escherichia coli PEG 10-79-22; settings: Nr. 11 Escherichia coli PEG 10-79-22, clinical isolate
Protocol: as §1, §2

[9] = tested on: Enterococcus faecium PEG 13-73-65; settings: Nr. 30 Enterococcus faecium PEG 13-73-65, clinical isolate
Protocol: as §1, §2

[10] = tested on: Klebsiella pneumoniae PEG-10-20-4; settings: Nr. 4 Klebsiella pneumoniae PEG-10-20-4, clinical isolate
Protocol: as §1, §2

[11] = tested on: Staphylococcus aureus PEG 10-38-22; settings: Nr. 9 Staphylococcus aureus PEG 10-38-22, clinical isolate
Protocol: as §1, §2

SMILES	MHK [1]	MHK [2]	MHK [3]	MHK [4]	MHK [5]	MHK [6]	MHK [7]	MHK [8]	MHK [9]	MHK [10]	MHK [11]
COc1c(NC(=O)c2ccc(NC(=O)c3ccc(NC(=O)[C@@H](CN(C)C)NC(=O)c4ccc(NC(=O)/C(C)=C/c5ccc(O)cc5)cc4)cc3)c(OC)c2O)ccc(C(=O)O)c1O [Compound 16, D-DMDAP-Albicidin]	32 mg/L	32 mg/L	16 mg/L	32 mg/L	32 mg/L	32 mg/L	32 mg/L	32 mg/L	32 mg/L	32 mg/L	32 mg/L
COc1c(NC(=O)c2ccc(NC(=O)c3ccc(NC(=O)[C@H](Cc4c[nH]cn4)NC(=O)c4ccc(NC(=O)/C(C)=C/c5ccc(O)cc5)cc4)cc3)c(OC)c2O)ccc(C(=O)O)c1O [Compound 1, L-His-albicidin]	32 mg/L	8 mg/L	0.063 mg/L	8 mg/L	4 mg/L	2 mg/L	32 mg/L	0.25 mg/L	32 mg/L	32 mg/L	32 mg/L
COc1c(NC(=O)c2ccc(NC(=O)c3ccc(NC(=O)[C@H](CN(C)C)NC(=O)c4ccc(NC(=O)/C(C)=C/c5ccc(O)cc5)cc4)cc3)c(OC)c2O)ccc(C(=O)O)c1O [Compound 2, L-DMDAP-Albicidin]	32 mg/L	32 mg/L	0.125 mg/L	32 mg/L	32 mg/L	32 mg/L	32 mg/L	32 mg/L	32 mg/L	32 mg/L	32 mg/L
COc1c(NC(=O)c2ccc(NC(=O)c3ccc(NC(=O)C(Cc4c[nH]nn4)NC(=O)c4ccc(NC(=O)/C(C)=C/c5ccc(O)cc5)cc4)cc3)c(OC)c2O)ccc(C(=O)O)c1O [Compound 3, L-Azahis-Albicidin]	32 mg/L	0.5 mg/L	0.008 mg/L	4 mg/L	0.5 mg/L	1 mg/L	8 mg/L	0.063 mg/L	8 mg/L	32 mg/L	2 mg/L
